Data reported in ChEMBL document CHEMBL1136351, “Synthesis and DNA-binding affinity of A-C8/C-C2 alkoxyamido-linked pyrrolo[2,1-c][1,4]benzodiazepine dimers” (Bioorg Med Chem Lett, 2003).

Key:
Assay type in all cases: functional
Conditions in all cases: Bos taurus
Nucleic Acid [1] = assay: Thermal denaturation in calf thymus DNA after incubation at 37 degrees C for 0h at PBD/DNA 1:5 molar ratio
Nucleic Acid [2] = assay: Thermal denaturation in calf thymus DNA after incubation at 37 degrees C for 18 hr at PBD/DNA 1:5 molar ratio
Nucleic Acid [3] = assay: Thermal denaturation in calf thymus DNA after incubation at 37 degrees C Centigrade for 18 hr at PBD/DNA 1:5 molar ratio
Nucleic Acid [4] = assay: Thermal denaturation in calf thymus DNA after incubation at 37 degree C for 18 hr at PBD/DNA 1:5 molar ratio

Row | Compound | ΔTm (Nucleic Acid [1]) | ΔTm (Nucleic Acid [2]) | ΔTm (Nucleic Acid [3]) | ΔTm (Nucleic Acid [4])
1 | COc1cc2c(cc1OCCCCC(=O)N[C@H]1C[C@H]3C=Nc4cc(OCc5ccccc5)c(OC)cc4C(=O)N3C1)N=C[C@@H]1CCCN1C2=O | 6.1 °C | 10.9 °C | – | –
2 | COc1cc2c(cc1OCCCC(=O)N[C@H]1C[C@H]3C=Nc4cc(OCc5ccccc5)c(OC)cc4C(=O)N3C1)N=C[C@@H]1CCCN1C2=O | 3.7 °C | 9.3 °C | – | –
3 | COc1cc2c(cc1OCC(=O)N[C@H]1C[C@H]3C=Nc4cc(OCc5ccccc5)c(OC)cc4C(=O)N3C1)N=C[C@@H]1CCCN1C2=O | 0.9 °C | – | 4.7 °C | –
4 | COc1cc2c(cc1O)N=C[C@@H]1CCCN1C2=O | 0.3 °C | – | – | 0.7 °C
